Results taken from US20080305995A1, “Royal Jelly Peptide and Composition Containing the Same” (priority 2003, published 2008).

How the values were obtained:
honeybee larvae = assay: Effect of inducing differentiation to queen bees (honeybee artificial breeding, peptide in artificial diet); format: in vivo, Western honeybees (Apis mellifela)
Experimental: Functional analysis was carried out by using the royal jelly peptide obtained in Example 6. Specifically, honeybees were bred according to the existing honeybee artificial breeding method. In this process, 500 ng of the royal jelly peptide was added in the artificial diet to be administered per honeybee. On the other hand, for the control group, bovine serum albumin was used in place of the royal jelly peptide.
The growth rate from larvae to imagines is about 20%. […] From this, it can be considered that the royal jelly peptide of the invention of this invention is […] having an auxiliary function in inducing differentiation to queen bees.

[1] = system: lymphocyte cell derived from a mouse spleen; assay: Immunity activation test (alamar blue, lymphocyte growth); format: cell-based, ICR type mice; settings: 3 μg/ml and 6 μg/ml, every 12 hours for 4 days, compared with no addition (FIG. 9)
Experimental: For the laboratory animal, ICR type mice (female, Nippon SLC) were used.
Whereas, for the medium, an RPMI medium (manufactured by Nissui Pharmaceutical Co., Ltd.) containing 10% fetal calf serum (FCS), 2 mM L-glutamine, 50 μM 2-mercaptoethanol, 100 Units/ml penicillin, and 100 μg/ml streptomycin was used. Thus, culturing was carried out in 5% CO2 at 37° C. under wet conditions.
Namely, the mice anesthetized with diethyl ether were subjected to cervical vertebrae dislocation, and fixed. Then, by using scissors for dissection and tweezers, the spleen was excised, and transferred to a dish containing therein 10 ml of PBS (−) (137 mM NaCl, 2.7 mM KCl, 2 mM Na2HPO4-12HyO, 1.5 mM KH2PO4). In the dish, the spleen was homogenized. […]
The lymph cell suspension controlled was dyed with a 0.4% trypan blue solution, and the number of cells was counted by means of a Burker-Turk hemocytomer. […]
The lymph cell suspension controlled in the item <bb was added in an amount of 100 μl per well into a 96-well microplate (manufactured by IWAKI Co.). […] Thus, the changes in absorbance were measured by means of a microplate reader (manufactured by Nalge Nunc International Co.) set at a wavelength of 590 to 620 nm every 12 hours for 4 days to analyze the effects of each fraction and isolated compound on the lymphocytes. […]

[2] = 500 ng per honeybee in artificial diet, 24 first instar larvae
[3] = 500 ng per honeybee in artificial diet, number among imagines

Substance: apisimin (KTSISVKGESNVDVVSQINSLVSSIVSGANVSAVLLAQTLVNILQILIDANVFA) [Recombinant peptide, Royal jelly peptide of 54 amino acid residues (apisimin), expressed in E. coli as thioredoxin fusion, cleaved with Factor Xa]
- Number of imagines (honeybee larvae; [2]): 4
- Number of last instar larvae (honeybee larvae; [2]): 14
- Number of pupae (honeybee larvae; [2]): 8
- Caste: Intermediates (honeybee larvae; [3]): 1
- Caste: Queen (honeybee larvae; [3]): 0
- Caste: Working bee (honeybee larvae; [3]): 3
- growth rate from larvae to imagines (honeybee larvae; Table 1 experiment): about 20%
- emergence of intermediates out of the larvae (honeybee larvae; larvae to which the royal jelly peptide had been administered): intermediates can be allowed to emerge
- effect on the growth of lymphocyte cells (alamar blue absorbance) [1]: remarkably exhibited
